# Measured values: patent US5686424A, “2-oxoethyl derivatives as immunosuppressants” (Miles Inc., priority 1995, dated 1997)
# Structures can show the parent of a compound that is named as a salt. Where two headings read alike, the source gives them in different places.
# What was measured:
# FKBP = FKBP (Homo sapiens, UniProt P62942); assay: PPIase Inhibition Assay; type: biochemical
# Summary of the method: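 Rates from p-nitroaniline release at 390 nm over 90 sec, fitted first-order, were converted to % activity remaining relative to uncatalyzed and uninhibited rates, with IC50 from linear regression of V-/V+ against inhibitor level. FKBP acted on Suc-Ala-Phe-Pro-Phe-pNA with excess chymotrypsin, HEPES pH 7.8, cold buffer.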
# human T-cells = assay: Suppression of Human T-Cell Proliferation Assay (PHA-stimulated, [3H]-thymidine incorporation); type: cell-based; conditions: read-out: IC50
# Summary of the method: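 Read-out is scintillation counting of [3H]-thymidine pulsed for the last 6 h of a 72 h, 37° C culture. Human T-cells, isolated from LeukoPaks by Lymphoprep and sheep-erythrocyte rosetting, were PHA-M activated (40 μg/ml stock) with compound dilutions added in duplicate wells.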
# NF-AT = NF-AT Inhibition Assay Directed β-Galactosidase Expression in FGL-5 cells; type: cell-based
# Method: 3) NF-AT Assay Stimulation of T-cells leads to the appearance of several transcription factors, including one designated "NF-AT". These factors are involved in regulation of gene expression required for immunologic activation. Some of these transcription factors appear to have functions in a wide variety of cell types. By contrast, NF-AT is found primarily in T-cells and its role is restricted to early gene activation. […] Inhibition of NF-AT activity is measured using FGL-5 cells. FGL-5 is a cloned line of stably transfected Jurkat T-cells that contain two construct in which three tandem copies of the NF-AT DNA binding site direct transcription of both murine CD8 and the lacZ gene, encoding β-galactosidase ([…] et al., 1990, Genes & Development 4:1823). When these cells are stimulated with phorbol esters which activate protein kinase C and calcium ionophore to raise the intracellular calcium concentration, transcriptionally active NF-AT is produced. In T-cells, this normally leads to the expression of IL-2, T-cell growth factor. However, in FGL-5 cells NF-AT activation leads to the production of β-galactosidase which can be detected using an appropriate substrate. […] NF-AT Inhibition Assay Directed β-Galactosidase Expression This assay was performed essentially as described (Bierer et al., 1990, Proc. Natl. Acad. Sci. 87:9231). […] The assays were done with exponentially growing cells whose density was not greater than 0.5 million cells/ml. The cells were resuspended to 3 million cells/ml in medium and 0.1 ml was added to wells of a 96-well plate. The compounds of the present invention were dissolved in either ethanol or dimethylsulfoxide at 10 mM and […] of various dilutions in medium were added to cells in duplicate wells. Treatment controls consisted of duplicate wells containing 0.5 ml/well of either medium, ethanol or dimethylsulfoxide. The ethanol and dimethyl sulfoxide were at the same concentration as was used for the compounds. […] Phorbol dibutyrate (Sigma) and Ionomycin (Calbiochem) were dissolved at 50 μg/ml and 2 mM, respectively and stored at -70° C. […] For unstimulated cell controls, 0.5 ml/well of medium was added to duplicate wells. The plates were incubated overnight (16-18 hours) at 37° C. in a humidified atmosphere of 5% CO2 and air. β-galactosidase activity was measured as the fluorescence generated by the cleavage of 4-methyl umbelliferyl-β-D-galactoside (Sigma) at the β-galactoside bond. After overnight incubation, the cells were centrifuged at 500×g for 3 minutes in the 96-well plates and washed 3 times with PBS. […] The percent inhibition by each concentration of the compounds was calculated as: […]
# [1] = concentration of inhibitor required for 50% inhibition of enzyme activity, FKBP, substrate Succinyl-Ala-Phe-Pro-Phe-para-nitroanilide, TABLE I
# [2] = concentration inhibiting [3H]-thymidine incorporation of PHA-stimulated T-cells by 50%, 72 hours, TABLE 2
# [3] = 50% inhibition of NF-AT directed β-galactosidase activity in FGL-5 cells stimulated with phorbol dibutyrate and ionomycin, TABLE 3
# Chain of FKBP (P62942 whole entry): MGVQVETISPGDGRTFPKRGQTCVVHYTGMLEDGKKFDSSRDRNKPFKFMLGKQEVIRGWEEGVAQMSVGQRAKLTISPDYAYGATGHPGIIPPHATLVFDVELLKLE
SMILES,IC50 (FKBP; [1]),IC50 (human T-cells; [2]),IC50 (NF-AT; [3]),IC50 (FKBP),IC50 (human T-cells),IC50 (NF-AT)
"C=CCOC(=O)Nc1ccc(CCCOC(=O)[C@@H]2CCCN2CC(=O)c2cc(OC)c(OC)c(OC)c2)cc1 [Example 126, L-Proline, 1-[2-(3,4,5-Trimethoxyphenyl)-2-Oxoethyl] 3-(4-[N-Carboallyloxy]aminophenyl)propyl Ester Hydrochloride]",> 5 µM,10 µM,> 15 µM,,,
"CC[C@H](C)[C@H](NC(=O)[C@@H]1CCCN1CC(=O)CC12CC3CC(CC(C)(C3)C1)C2)C(=O)NCc1ccccc1 [Example 46, L-Isoleucine, N-[1-(2-Oxo-3-(3-Methyl-Adamantan-1-yl)-Propyl)-L-Prolyl] Benzylamide]",< 5 µM,13 µM,15 µM,,,
"COc1cc(C(=O)CN2CCC[C@H]2C(=O)NCC2CCCCC2)cc(OC)c1OC [Example 141, L-Proline, 1-[2-(3,4,5-Trimethoxylphenyl)-2-Oxoethyl] Cyclohexylmethylamide]",> 5 µM,7 µM,> 33 µM,,,
"COc1cc(C(=O)CN2CCC[C@H]2C(=O)NC(C)CCc2ccccc2)cc(OC)c1OC (stereo partly drawn) [Example 138, L-Proline, 1-[2-(3,4,5-Trimethoxyphenyl)-2-Oxoethyl] 1-methyl-3-phenylpropylamide Hydrochloride]",> 5 µM,18 µM,> 33 µM,,,
"CC[C@H](C)[C@H](NC(=O)[C@@H]1CCCN1CC(=O)c1ccc(OC(=O)c2ccccc2)cc1)C(=O)NCc1ccccc1 [Example 102, L-Isoleucine, N-[1-(2-(4-Benzoyloxyphenyl)-2-Oxoethyl)-L-Prolyl] Benzylamide]",5 µM,> 15 µM,> 15 µM,,,
"CC[C@H](C)[C@H](NC(=O)[C@@H]1CCCN1CC(=O)c1ccccc1OC(=O)c1ccccc1)C(=O)NCc1ccccc1 [Example 103, L-Isoleucine, N-[1-(2-(2-Benzoyloxyphenyl)-2-Oxoethyl)-L-Prolyl] Benzylamide]",< 5 µM,> 15 µM,> 15 µM,,,
"COc1cc(C(=O)CN2CCCC[C@H]2C(=O)NCC2CCCO2)cc(OC)c1OC (stereo partly drawn) [Example 148, L-Homoproline, 1-[2-(3,4,5-Trimethoxyphenyl)-2-Oxoethyl] tetrahydrofurfurylamide]",> 5 µM,> 15 µM,> 15 µM,,,
"CC[C@H](C)[C@H](NC(=O)[C@@H]1CCCN1CC(=O)c1cccc(OC(=O)c2ccccc2)c1)C(=O)NCc1ccccc1 [Example 101, L-Isoleucine, N-[1-(2-(3-Benzoyloxyphenyl)-2-Oxoethyl)-L-Prolyl] Benzylamide]",< 5 µM,> 15 µM,> 15 µM,,,
"CC[C@H](C)[C@H](NC(=O)[C@@H]1CCCN1CC(=O)NCC12CC3CC(CC(C3)C1)C2)C(=O)NCc1ccccc1 [Example 91, L-Isoleucine, N-[1-(Adamant-1-ylmethylcarbamoylmethyl)-L-Prolyl] Benzylamide]",< 5 µM,4 µM,26 µM,,,
"CC[C@H](C)[C@H](NC(=O)[C@@H]1CCCCN1CC(=O)C12CC3CC(CC(C3)C1)C2)C(=O)NCc1ccccc1 [Example 36, L-Isoleucine, N-[1-(2-Adamantan-1-yl-2-Oxoethyl)-L-Homoproline] Benzylamide]",2.2 µM,20 µM,13 µM,,,
"O=C(NCc1ccccc1)[C@H](CC1CCCCC1)NC(=O)[C@@H]1CCCN1CC(=O)C12CC3CC(CC(C3)C1)C2 [Example 64, L-Cyclohexylalanine, N-[1-(2-Adamantan-1-yl-2-Oxoethyl)-L-Prolyl] Benzylamide]",< 5 µM,7 µM,16 µM,,,
"COc1cc(C(=O)CN2CCCC[C@H]2C(=O)NCc2ccccc2)cc(OC)c1OC [Example 146, L-Homoproline, 1-[2-(3,4,5-Trimethoxyphenyl)-2-Oxoethyl] Benzylamide Hydrochloride]",> 5 µM,> 15 µM,> 15 µM,,,
"COc1cc(C(=O)CN2CCC[C@H]2C(=O)NCCc2ccc(NC(=O)OCc3ccccc3)cc2)cc(OC)c1OC [Example 157, L-Proline, 1-[2-(3,4,5-Trimethoxyphenyl)-2-Oxoethyl] 2-(4-(N-Carbobenzyloxy)aminophenyl)ethylamide]",> 5 µM,5 µM,> 15 µM,,,
"CC[C@H](C)[C@H](NC(=O)[C@@H]1CCCN1CC(=O)C1(c2ccc(C)cc2)CCCCC1)C(=O)NCc1ccccc1 [Example 113, L-Isoleucine, N-[1-(2-(1-(4-Methylphenyl)cyclohexyl)-2-Oxoethyl)-L-Prolyl] Benzylamide]",< 5 µM,8 µM,> 15 µM,,,
"COc1cc(C(=O)CN2CCC[C@H]2C(=O)NCc2cccc3ccccc23)cc(OC)c1OC [Example 129, L-Proline, 1-[2-(3,4,5-Trimethoxyphenyl)-2-Oxoethyl] Naphthalen-1-ylmethylamide]",> 5 µM,10 µM,> 15 µM,,,
CC[C@H](C)[C@H](NC(=O)[C@@H]1CCCN1CC(=O)C1CC2CCC1C2)C(=O)NCc1ccccc1 (stereo partly drawn) [Example 97],< 5 µM,12 µM,32 µM,,,
"CC[C@H](C)[C@H](NC(=O)[C@@H]1CCCN1CC(=O)OCC1(c2ccccc2)CCCCC1)C(=O)NCc1ccccc1 [Example 87, L-Isoleucine, N-[1-(2-(1-Phenyl-1-Cyclohexylmethoxy)-2-Oxoethyl)-L-Prolyl] Benzylamide]",> 5 µM,8 µM,6 µM,,,
"COc1cc(C(=O)CN2CCC[C@H]2C(=O)NCc2ccccc2)cc(OC)c1OC [Example 120, L-Proline, 1-[2-(3,4,5-Trimethoxyphenyl)-2-Oxoethyl] Benzylamide Hydrochloride]",> 5 µM,7 µM,> 15 µM,,,
CC[C@H](C)[C@H](NC(=O)[C@@H]1CCCN1CC(=O)C1CCC2CCCC21)C(=O)NCc1ccccc1 (relative stereo) [Example 40],,,,< 5 µM,17 µM,19 µM
"COc1cc(C(=O)CN2CCC[C@H]2C(=O)NCCc2ccc(NC(C)=O)cc2)cc(OC)c1OC [Example 154, L-Proline, 1-[2-(3,4,5-Trimethoxyphenyl)-2-Oxoethyl] 2-(4-(N-Acetyl)aminophenyl)ethylamide]",> 5 µM,13 µM,> 15 µM,,,
"CCC(OC(=O)CN1CCC[C@H]1C(=O)N[C@H](C(=O)NCc1ccccc1)[C@@H](C)CC)c1ccccc1 (stereo partly drawn) [Example 86, L-Isoleucine, N-[1-(2-(1-Phenylpropoxy)-2-Oxoethyl)-L-Prolyl] Benzylamide]",0.88 µM,22 µM,13 µM,,,
"CC[C@H](C)[C@H](NC(=O)[C@@H]1CCCN1CC(=O)C1CCC(C(C)(C)C)CC1)C(=O)NCc1ccccc1 (stereo partly drawn) [Example 96, L-Isoleucine, N-[1-(2-(4-tert-Butylcyclohexyl)-2-Oxoethyl)-L-Prolyl] Benzylamide]",< 5 µM,8 µM,24 µM,,,
"CC[C@H](C)[C@H](NC(=O)[C@@H]1CCCN1CC(=O)c1cccc(OC)c1OC)C(=O)NCc1ccccc1 [Example 111, L-Isoleucine, N-[1-(2-(2,3-Dimethoxyphenyl)-2-Oxoethyl)-L-Prolyl] Benzylamide]",< 5 µM,7 µM,> 15 µM,,,
